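Compound exposure: 48 hours, 5 concentrations, 96-well plates. At the GI50, growth is halved. TGI: concentration producing complete growth inhibition.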
Key:
Test in all cases: DTP human tumour cell line panel, 48 h
K-562 leukemia = test system: K-562 leukemia
SK-MEL-2 melanoma = test system: SK-MEL-2 melanoma
786-0 renal = test system: 786-0 renal
SK-OV-3 ovarian = test system: SK-OV-3 ovarian
HCT-116 colon = test system: HCT-116 colon
SK-MEL-5 melanoma = test system: SK-MEL-5 melanoma
ACHN renal = test system: ACHN renal
UACC-257 melanoma = test system: UACC-257 melanoma
SF-539 CNS = test system: SF-539 CNS
LOX IMVI melanoma = test system: LOX IMVI melanoma

Structure (SMILES)	GI50 (K-562 leukemia)	TGI (K-562 leukemia)	GI50 (SK-MEL-2 melanoma)	TGI (SK-MEL-2 melanoma)	GI50 (786-0 renal)	TGI (786-0 renal)	GI50 (SK-OV-3 ovarian)	TGI (SK-OV-3 ovarian)	GI50 (HCT-116 colon)	TGI (HCT-116 colon)	GI50 (SK-MEL-5 melanoma)	TGI (SK-MEL-5 melanoma)	GI50 (ACHN renal)	TGI (ACHN renal)	GI50 (UACC-257 melanoma)	TGI (UACC-257 melanoma)	GI50 (SF-539 CNS)	TGI (SF-539 CNS)	GI50 (LOX IMVI melanoma)	TGI (LOX IMVI melanoma)
O=C(Nc1ccc(Cl)c(Cl)c1)NS(=O)(=O)c1cnccc1Oc1ccc(F)cc1	3.27 µM	> 100 µM	4.71 µM	> 100 µM	4.51 µM	70.9 µM	3.87 µM	18.2 µM	3.07 µM	12.3 µM	3.63 µM	13.5 µM	3.22 µM	> 100 µM	4.72 µM	24.4 µM	3.64 µM	24.6 µM	3.24 µM	53.1 µM
Cc1cc(I)cc(CN(C)CCCN2CCCC2)c1O	14.5 µM	33.2 µM	20.6 µM	40.4 µM	14.4 µM	30.3 µM	20.5 µM	61.2 µM	15.5 µM	55.6 µM	13.1 µM	26 µM	23.1 µM	65.4 µM	22.7 µM	> 57 µM	15.3 µM	31 µM	15 µM	30.6 µM
O=[N+]([O-])c1ccc(Sc2c3ccccc3nc3cc(Cl)ccc23)cc1	> 100 µM	> 100 µM	> 100 µM	> 100 µM	> 100 µM	> 100 µM	> 100 µM	> 100 µM	> 100 µM	> 100 µM	> 100 µM	> 100 µM	–	–	> 100 µM	> 100 µM	–	–	> 100 µM	> 100 µM
Oc1ccccc1-c1nn(CNc2ccccc2Cl)c(=S)o1	> 100 µM	> 100 µM	> 100 µM	> 100 µM	> 100 µM	> 100 µM	> 100 µM	> 100 µM	29.8 µM	> 100 µM	> 100 µM	> 100 µM	16.8 µM	38.5 µM	> 100 µM	> 100 µM	37.7 µM	97.7 µM	18.9 µM	35.2 µM
COC(=O)C1(C)Cc2cc(OC(C)=O)c(OC(C)=O)cc2N1 (stereo not given)	3.67 µM	> 100 µM	5.92 µM	17.9 µM	24.1 µM	62.2 µM	> 87.4 µM	> 100 µM	3.96 µM	15.5 µM	13.9 µM	27.8 µM	3.42 µM	19.9 µM	1.68 µM	11.4 µM	15.4 µM	33.2 µM	5.06 µM	19.7 µM
O=C(O)[C@H](c1ccccc1)[C@@H](C(=O)O)c1ccccc1	–	> 100 µM	–	> 100 µM	–	> 100 µM	–	> 100 µM	–	> 100 µM	–	> 100 µM	–	> 100 µM	–	> 100 µM	–	> 100 µM	–	> 100 µM
C=C1C(=O)O[C@H]2[C@H]1CC/C(COC(=O)NCC(C)c1ccc(CC(C)C)cc1)=C\CC[C@@]1(C)O[C@@H]21 (stereo not given in full)	–	–	3.86 µM	8.48 µM	0.582 µM	1.1 µM	5.94 µM	11 µM	0.641 µM	1.32 µM	3.97 µM	8.07 µM	0.623 µM	1.32 µM	5.01 µM	9.89 µM	3.71 µM	7.71 µM	0.506 µM	1 µM
Cc1nc(C(N)=S)sc1C(=O)/C=C/c1c(O)ccc2ccccc12	–	> 64.7 µM	–	> 100 µM	–	> 100 µM	–	> 100 µM	–	> 100 µM	–	> 100 µM	–	> 100 µM	–	> 100 µM	–	> 100 µM	–	73.6 µM
CC(C)(Oc1ccc(/C=C/C(=O)c2ccc(Cl)cc2)cc1)C(=O)Nc1c(Cl)cccc1Cl	–	> 100 µM	–	> 100 µM	–	45.8 µM	–	> 100 µM	–	18.5 µM	–	37 µM	–	53 µM	–	99.6 µM	–	28.1 µM	–	31 µM
CN1/C(=C\C=C\C2=[N+](C)c3ccccc3C2(C)C)C(C)(C)c2ccccc21	< 0.0156 µM	1.39 µM	0.212 µM	1.14 µM	0.251 µM	5.44 µM	0.152 µM	0.638 µM	0.0303 µM	1.11 µM	0.0322 µM	0.151 µM	0.268 µM	3.15 µM	0.0386 µM	0.452 µM	0.224 µM	5.91 µM	0.0445 µM	0.796 µM
O=C1CCCCN1CCCCC#Cc1cccc(C#Cc2cccnc2)c1	14.7 µM	> 100 µM	–	–	13 µM	27.8 µM	16.4 µM	32.2 µM	4.67 µM	18.4 µM	14.3 µM	36.3 µM	9.64 µM	21.7 µM	17.7 µM	49.6 µM	31.8 µM	> 100 µM	8.55 µM	25.9 µM
CCCCN(CC)CC(C(C)=O)c1c(O)c2ccccc2oc1=O (stereo not given)	–	> 100 µM	–	> 100 µM	–	> 100 µM	–	> 100 µM	–	> 100 µM	–	> 100 µM	–	> 100 µM	–	> 100 µM	–	> 100 µM	–	> 100 µM
O=C(O)c1ccc(C2C(=O)N[C@@H]3CCC[C@H]23)cc1 (stereo not given in full)	–	> 100 µM	–	> 100 µM	–	> 100 µM	–	> 100 µM	–	> 100 µM	–	> 100 µM	–	–	–	> 100 µM	–	> 100 µM	–	> 100 µM
C=C(C)C1C/C=C(/C)CCCC2(CCC3=C(CC(C(=C)C)C/C=C(/C)CCC3)O2)C(=O)C1 (stereo not given)	–	> 100 µM	–	> 100 µM	–	> 100 µM	–	> 100 µM	–	> 100 µM	–	–	–	> 100 µM	–	> 100 µM	–	> 100 µM	–	> 100 µM
